The values that follow come from US20240325319A1, “INHIBITORS OF AMYLOID BETA OLIGOMERIZATION AND THERAPEUTIC USES THEREOF” (Northwestern University, priority 2021, published 2024).

“Also recorded” adds a separate entry of the source. Where a SMILES comes first, the peptide text is derived from it. The star is where a group is joined. Cbz = O=C(OCc1ccccc1)*

One experiment has as its system acidic lysosomes. The experiment can be described thus: Lysotracker labelling of acidic compartments in hippocampal neurons. It counts as cell-based, rat. The note with it: addition of control Bafilomycin A. The procedure: FIG. 24. Mature E18 hippocampal neurons were treated 3 μM NU-9, and subsequently labelled with lysotracker. A) total immunofluorescence (integrated density), B) mean intensity, C) average size of acidic compartments, D) number of acidic compartments.

The next experiment deals with AβOs bound to neurons. Description: AβOs bound to dendrites of hippocampal neurons treated with Aβ42 monomer (immunofluorescence, NU2/NU4). It counts as cell-based, rat. The note with it: for influence of lysosome acidification inhibitor on the effect of NU-9: Bafilomycin A 100 nM, 30 min prior to 3 μM NU-9, then 500 nM Aβ monomer 30 min; for AβO accumulation under cathepsin L inhibition: 10 μM cathepsin L inhibitor 1 h, 500 nM Aβ 30 min.

Another experiment has as its target cathepsin B (Homo sapiens, UniProt P07858). Description: Purified cathepsin B enzyme activity (Z-RR-AMC to 7-AMC). The format is biochemical. The note with it: same concentration range (0.0003-30 μM). The procedure: FIG. 28. A) 0.0003-30 μM NU-9 was combined with purified cathepsin B enzyme in the presence of the cathepsin B substrate Z-RR-AMC. Cathepsin B enzyme activity was measured by the rate of 7-AMC production by fluorescence. Percent change in rate with NU-9 was quantified in the graph. […] B) Mature hippocampal neurons were treated with NU-9 for 30 minutes, then Magic Red was used to monitor intracellular cathepsin L activity. Cells were treated in 3 wells.

The next experiment has as its target cathepsin L (Homo sapiens, UniProt P07711). The experiment can be described thus: Purified cathepsin L enzyme activity (Z-FR-AMC to 7-AMC). It counts as biochemical. Conditions: same concentration range (0.0003-150 μM). The procedure:
FIG. 26. A) 0.0003-150 μM NU-9 was combined with purified cathepsin L enzyme in the presence of the cathepsin L substrate Z-FR-AMC. Cathepsin L enzyme activity was measured by the rate of 7-AMC production by fluorescence. Percent change in rate was quantified in the graph. […] B) Mature hippocampal neurons were treated with NU-9 for 30 minutes, then Magic Red was used to monitor intracellular cathepsin L activity. Cells were treated in 3 wells, and 9-22 images were analyzed per condition.
No effect of 0.0003-150 μM NU-9 was observed on the cathepsin L activity as measured by the production rate of 7-AMC from Z-FR-AMC by purified cathepsin L enzyme.

Sequence of cathepsin L (P07711 114-333, species assumed): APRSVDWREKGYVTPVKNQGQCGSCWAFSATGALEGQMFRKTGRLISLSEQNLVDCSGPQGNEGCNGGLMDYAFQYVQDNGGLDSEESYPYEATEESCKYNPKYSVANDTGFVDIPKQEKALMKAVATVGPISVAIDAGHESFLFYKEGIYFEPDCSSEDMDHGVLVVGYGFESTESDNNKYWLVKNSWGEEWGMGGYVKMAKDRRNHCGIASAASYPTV

For the compound `CO/C1=C\C(C)=C\[C@@H](C)[C@@H](O)[C@@H](C)C/C(C)=C/C=C/[C@H](OC)[C@@H]([C@@H](C)[C@@H](O)[C@H](C)[C@@]2(O)C[C@@H](O)[C@H](C)[C@@H](C(C)C)O2)OC1=O` [Bafilomycin A], in the experiment on acidic lysosomes, the “integrated fluorescent density of lysotracker, control” value is given as “significantly reduced”. Besides, the “neuron-binding AβOs with lysosome inhibitor in the absence of NU-9” value in the experiment on AβOs bound to neurons (100 nM bafilomycin A 30 min, Aβ monomer 500 nM 30 min, vs Aβ monomer alone) is listed as “did not lead to the formation of significantly more neuron-binding AβOs”. Moreover, the “influence of lysosome acidification inhibitor on the effect of NU-9” value in the experiment with AβOs bound to neurons is listed as “prevents the effect of NU-9 on AβOs bound to synapses; also recorded: significantly prevented the effect of NU-9”; in the experiment on AβOs bound to neurons (listed as Bafilomyicin A) it was “prevented the effect of NU-9”.
With `CCCNC(=O)[C@H]1O[C@@H]1C(=O)N[C@H](C(=O)N1CCC[C@H]1C(=O)O)[C@@H](C)CC` [CA-074], the “cathepsin B activity, standard inhibitor” value on cathepsin B was “Clear inhibition of enzyme activity”. Besides, the “influence of cathepsin B inhibitor on the effect of NU-9” value with AβOs bound to neurons (10 μM CA-074 24 h, 3 μM NU-9 30 min, 500 nM Aβ monomer 30 min) is on record as “prevented the effect of NU-9”.
With `CC(C)C[C@H](NC(=O)[C@H]1O[C@@H]1C(=O)O)C(=O)NCCCCN=C(N)N` [E64], the “number of bound AβOs, inhibitor alone” value with AβOs bound to neurons (E64 10 μM, 24 h, Aβ monomer 500 nM 30 min) is “significantly reduced the number of bound AβOs”. In addition, the “influence of cysteine cathepsin inhibitor on the effect of NU-9” value in the experiment on AβOs bound to neurons (E64 10 μM, 24 h, then NU-9 3 μM 30 min, Aβ monomer 500 nM 30 min) is “did not significantly change the effectiveness of NU-9; also recorded: does not prevent the effect of NU-9”.
On to `CC(C)C[C@@H](C=O)NC(=O)[C@H](CC(C)C)NC(=O)[C@H](CC(C)C)NC(=O)OCc1ccccc1` [MG132] (Cbz-Leu-Leu-Leu-aldehyde), for which, in the experiment with AβOs bound to neurons (100 nM MG132 30-min pre-treatment, 500 nM Aβ42), the “formation of AβOs under proteasome inhibition” value is reported as “no effect on formation of AβOs”. For the same compound, in the experiment on AβOs bound to neurons (100 nM MG132 30 min, 3 μM NU-9 30 min, 500 nM Aβ42), the “influence of proteasome inhibition on reduction of AβO accumulation by NU-9” value is recorded as “no effect on formation of AβOs or reduction of AβO accumulation by NU-9”.
As to `O=C[C@H](Cc1ccc(O)cc1)NC(=O)[C@H](Cc1ccccc1)NC(=O)OCc1ccccc1` [Z-FY-CHO] (Cbz-Phe-Tyr-aldehyde), the “cathepsin L activity, standard inhibitor” value on cathepsin L is “reduced cathepsin L activity”. Besides, the “AβO accumulation under cathepsin L inhibition” value with AβOs bound to neurons is “mimicked the effect of NU-9”; in the experiment on AβOs bound to neurons (listed as Cathepsin L inhibitor) it was “prevents AβO accumulation”.
In the case of `Ic1cccc(/C=N/Nc2nc(N3CCOCC3)nc(N(c3ccccc3)c3ccccc3)n2)c1` [vacuolin-1], the “influence of inhibition of lysosome maturation and exocytosis on NU-9” value in the experiment with AβOs bound to neurons (1 μM vacuolin-1 1 h pre-treatment, 3 μM NU-9 30 min, 500 nM Aβ42) is listed as “prevented the effectiveness of NU-9”.
For MDL-28170, the “AβO accumulation under calpain inhibition” value with AβOs bound to neurons (10 μM MDL-28170 30 min, 500 nM Aβ42 30 min) is on record as “reducing AβO accumulation; also recorded: may mimic the effect of NU-9”.
